Activity calls are given as the source filed them.
Assays:
[1] = molecular target: T1, Sentrin-specific protease 7 (Homo sapiens, UniProt Q9BQF6); format: functional;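 further: Luminescence-based dose-response confirmation of ultra-high-throughput screening hits, measuring inhibition of SENP7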
T1 sequence (Q9BQF6 whole entry): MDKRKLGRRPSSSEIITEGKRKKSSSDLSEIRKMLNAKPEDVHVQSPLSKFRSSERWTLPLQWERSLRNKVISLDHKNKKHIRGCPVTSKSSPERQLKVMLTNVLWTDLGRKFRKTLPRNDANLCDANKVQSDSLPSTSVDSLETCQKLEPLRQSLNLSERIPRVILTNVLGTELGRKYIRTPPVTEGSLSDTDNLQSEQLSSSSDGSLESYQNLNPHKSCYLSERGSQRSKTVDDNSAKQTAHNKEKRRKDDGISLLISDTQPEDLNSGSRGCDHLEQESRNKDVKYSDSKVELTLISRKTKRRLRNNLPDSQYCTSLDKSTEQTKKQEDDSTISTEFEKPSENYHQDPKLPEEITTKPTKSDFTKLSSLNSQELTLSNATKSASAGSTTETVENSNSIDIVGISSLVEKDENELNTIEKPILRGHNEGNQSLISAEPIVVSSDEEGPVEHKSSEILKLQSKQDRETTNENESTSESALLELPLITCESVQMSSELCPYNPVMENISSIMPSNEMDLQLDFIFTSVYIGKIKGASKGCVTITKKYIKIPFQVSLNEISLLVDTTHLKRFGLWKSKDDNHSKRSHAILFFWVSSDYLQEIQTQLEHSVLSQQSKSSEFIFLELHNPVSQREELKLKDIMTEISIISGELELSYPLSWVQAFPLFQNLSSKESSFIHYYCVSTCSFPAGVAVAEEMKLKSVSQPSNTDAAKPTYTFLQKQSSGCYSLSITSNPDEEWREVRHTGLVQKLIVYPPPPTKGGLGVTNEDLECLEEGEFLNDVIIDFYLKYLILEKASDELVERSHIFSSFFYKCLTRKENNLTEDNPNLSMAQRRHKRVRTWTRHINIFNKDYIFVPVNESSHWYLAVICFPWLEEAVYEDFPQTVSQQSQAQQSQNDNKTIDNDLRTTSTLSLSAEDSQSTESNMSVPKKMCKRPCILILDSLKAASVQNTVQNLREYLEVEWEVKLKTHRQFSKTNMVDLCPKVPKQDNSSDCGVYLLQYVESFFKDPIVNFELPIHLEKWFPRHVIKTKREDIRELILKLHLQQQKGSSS

[2] = molecular target: T2, Caspase-3 (Homo sapiens, UniProt P42574); format: functional;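 further: Dose-response selectivity test against caspase-3 for candidate inhibitors of sentrin-specific proteases (SENPs)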
T2 sequence (P42574 whole entry): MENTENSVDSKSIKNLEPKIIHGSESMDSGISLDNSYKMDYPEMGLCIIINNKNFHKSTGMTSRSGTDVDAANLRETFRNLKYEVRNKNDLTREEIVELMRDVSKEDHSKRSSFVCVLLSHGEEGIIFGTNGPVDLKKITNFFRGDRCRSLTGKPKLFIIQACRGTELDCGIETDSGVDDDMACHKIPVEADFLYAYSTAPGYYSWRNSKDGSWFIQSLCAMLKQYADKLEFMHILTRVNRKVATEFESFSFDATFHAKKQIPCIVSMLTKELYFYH

[3] = molecular target: T3, Sentrin-specific protease 6 (Homo sapiens, UniProt Q9GZR1); format: functional;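 further: Luminescence-based dose-response confirmatory assay of SENP6 inhibition, following up an ultra-high-throughput screen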
T3 sequence (Q9GZR1 whole entry): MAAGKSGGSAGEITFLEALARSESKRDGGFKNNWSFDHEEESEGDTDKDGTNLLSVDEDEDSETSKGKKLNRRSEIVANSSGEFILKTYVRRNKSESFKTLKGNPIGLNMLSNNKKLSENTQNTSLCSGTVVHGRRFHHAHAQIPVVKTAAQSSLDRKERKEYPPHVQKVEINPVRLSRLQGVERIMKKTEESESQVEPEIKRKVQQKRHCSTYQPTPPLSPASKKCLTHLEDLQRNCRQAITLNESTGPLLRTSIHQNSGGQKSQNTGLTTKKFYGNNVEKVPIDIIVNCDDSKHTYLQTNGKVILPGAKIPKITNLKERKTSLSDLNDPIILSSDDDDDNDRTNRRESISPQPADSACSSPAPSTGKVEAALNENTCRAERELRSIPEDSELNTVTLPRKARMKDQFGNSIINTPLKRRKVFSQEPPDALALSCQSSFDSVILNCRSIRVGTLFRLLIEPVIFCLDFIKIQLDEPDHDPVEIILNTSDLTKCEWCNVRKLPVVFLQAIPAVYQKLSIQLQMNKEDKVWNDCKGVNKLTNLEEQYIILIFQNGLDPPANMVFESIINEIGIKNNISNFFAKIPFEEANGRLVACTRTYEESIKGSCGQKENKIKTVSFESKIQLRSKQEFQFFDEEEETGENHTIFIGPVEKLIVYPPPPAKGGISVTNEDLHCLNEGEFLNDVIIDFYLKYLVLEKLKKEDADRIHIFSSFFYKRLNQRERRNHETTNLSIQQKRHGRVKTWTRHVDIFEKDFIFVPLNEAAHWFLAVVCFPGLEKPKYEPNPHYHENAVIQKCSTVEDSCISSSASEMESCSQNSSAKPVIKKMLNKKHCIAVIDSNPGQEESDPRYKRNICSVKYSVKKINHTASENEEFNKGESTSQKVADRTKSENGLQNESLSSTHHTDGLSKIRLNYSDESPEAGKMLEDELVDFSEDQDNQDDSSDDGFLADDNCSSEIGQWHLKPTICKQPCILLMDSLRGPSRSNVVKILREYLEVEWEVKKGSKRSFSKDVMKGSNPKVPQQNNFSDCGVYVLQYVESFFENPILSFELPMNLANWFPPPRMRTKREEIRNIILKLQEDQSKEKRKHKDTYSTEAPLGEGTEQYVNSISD

[4] = molecular target: T4, Oxysterols receptor LXR-beta (Homo sapiens, UniProt P55055); format: functional, cell-based;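 further: agonist activity at LXR measured by a cell-based luminescence readout across a dose range, run as a counterscreen for daf-12 agonists; potency for activation of Gal4-LXR reporter so compounds are agonists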
T4 sequence (P55055 whole entry): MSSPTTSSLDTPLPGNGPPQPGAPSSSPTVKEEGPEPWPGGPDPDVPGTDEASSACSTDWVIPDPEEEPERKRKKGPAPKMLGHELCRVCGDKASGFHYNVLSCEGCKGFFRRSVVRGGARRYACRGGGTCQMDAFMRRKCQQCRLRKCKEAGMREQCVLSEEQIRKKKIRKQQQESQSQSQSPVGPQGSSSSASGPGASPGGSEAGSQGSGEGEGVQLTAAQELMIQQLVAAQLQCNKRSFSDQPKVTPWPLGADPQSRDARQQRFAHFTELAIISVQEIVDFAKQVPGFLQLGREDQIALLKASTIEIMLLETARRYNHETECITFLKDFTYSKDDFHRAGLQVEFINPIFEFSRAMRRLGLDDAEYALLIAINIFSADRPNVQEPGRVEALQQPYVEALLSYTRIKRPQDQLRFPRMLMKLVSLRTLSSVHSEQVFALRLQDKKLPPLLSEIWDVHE

[5] = molecular target: T5, Sentrin-specific protease 8 (Homo sapiens, UniProt Q96LD8); format: functional;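 further: luminescence read-out of SENP8 inhibition, dose-response confirmation following an ultra-high-throughput screen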
T5 sequence (Q96LD8 whole entry): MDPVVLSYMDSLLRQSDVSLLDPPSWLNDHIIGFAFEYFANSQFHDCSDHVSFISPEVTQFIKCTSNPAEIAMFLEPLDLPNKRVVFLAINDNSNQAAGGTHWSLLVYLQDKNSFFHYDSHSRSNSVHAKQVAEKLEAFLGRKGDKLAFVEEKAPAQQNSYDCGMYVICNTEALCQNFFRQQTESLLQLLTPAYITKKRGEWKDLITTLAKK

[6] = molecular target: NAD-dependent protein deacylase sirtuin-5, mitochondrial (Homo sapiens, UniProt Q9NXA8); assay: SIRT5 desuccinylase inhibitors, dose response, biochemical, fluorescence imaging, cherry-pick, set 5 (AID 720591);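 further: desuccinylation of succinyl peptide AMC substrate read as fluorescence after trypsin release; potency of inhibitors that lower fluorescence and may act on trypsin instead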
NAD-dependent protein deacylase sirtuin-5, mitochondrial, sequence (Q9NXA8 whole entry): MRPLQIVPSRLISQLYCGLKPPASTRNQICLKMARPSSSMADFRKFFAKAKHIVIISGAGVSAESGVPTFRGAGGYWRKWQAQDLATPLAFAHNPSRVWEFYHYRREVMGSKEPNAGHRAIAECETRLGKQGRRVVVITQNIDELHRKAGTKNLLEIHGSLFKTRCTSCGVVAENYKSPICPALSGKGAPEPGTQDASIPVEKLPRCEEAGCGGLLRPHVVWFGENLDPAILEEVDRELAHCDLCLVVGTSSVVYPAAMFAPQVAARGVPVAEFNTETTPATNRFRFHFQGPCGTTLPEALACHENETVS

[7] = molecular target: T6, Mannose-6-phosphate isomerase (Homo sapiens, UniProt P34949); assay: human PMI inhibitors, high substrate, primary screen, biochemical, fluorescence intensity, high mannose 6-phosphate (AID 1220)
T6 sequence (P34949 whole entry): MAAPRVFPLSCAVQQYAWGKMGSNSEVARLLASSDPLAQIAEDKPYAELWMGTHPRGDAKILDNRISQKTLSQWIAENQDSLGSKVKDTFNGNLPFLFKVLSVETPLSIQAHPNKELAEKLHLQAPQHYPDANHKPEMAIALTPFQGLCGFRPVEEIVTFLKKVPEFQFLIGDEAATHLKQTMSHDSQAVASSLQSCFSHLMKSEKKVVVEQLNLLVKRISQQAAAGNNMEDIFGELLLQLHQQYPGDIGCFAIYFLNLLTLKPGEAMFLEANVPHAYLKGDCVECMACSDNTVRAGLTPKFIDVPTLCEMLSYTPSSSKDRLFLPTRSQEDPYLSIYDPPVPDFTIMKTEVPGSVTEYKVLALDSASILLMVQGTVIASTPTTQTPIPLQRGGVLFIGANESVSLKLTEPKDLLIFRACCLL

[8] = molecular target: T4, Oxysterols receptor LXR-beta; assay: LXR agonists, Gal4 luciferase reporter, dose response, counter-screen for ssDAF-12 agonist project, cell-based, luminescence, HEK293, S. stercoralis campaign (AID 720737); format: functional; settings: read-out: IC50 (the source's name)
[9] = molecular target: T7, Nuclear receptor subfamily 0 group B member 1 (Homo sapiens, UniProt P51843); assay: Luminescence-based cell-based high throughput dose response assay for inhibitors of the orphan nuclear receptor subfamily 0, group B, member 1 (DAX1; NR0B1). [Related pubchem assays (depositor defined):AID504766, AID504790]; format: functional
T7 sequence (P51843 whole entry): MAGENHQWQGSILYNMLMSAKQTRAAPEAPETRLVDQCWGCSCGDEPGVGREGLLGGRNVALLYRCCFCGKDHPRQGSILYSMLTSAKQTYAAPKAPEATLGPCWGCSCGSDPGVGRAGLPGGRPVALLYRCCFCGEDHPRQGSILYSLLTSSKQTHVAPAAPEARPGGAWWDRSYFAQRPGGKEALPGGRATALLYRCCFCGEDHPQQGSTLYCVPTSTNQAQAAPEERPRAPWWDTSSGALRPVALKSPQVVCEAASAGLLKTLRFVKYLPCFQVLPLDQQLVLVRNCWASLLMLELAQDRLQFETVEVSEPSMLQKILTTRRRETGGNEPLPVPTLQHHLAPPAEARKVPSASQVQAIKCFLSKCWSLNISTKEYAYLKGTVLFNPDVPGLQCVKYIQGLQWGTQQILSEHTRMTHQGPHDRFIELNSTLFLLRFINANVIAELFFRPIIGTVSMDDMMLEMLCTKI

[10] = tested on: HEK293; assay: cells; format: functional, cell-based; settings: Homo sapiens
[11] = Luminescence-based cell-based high throughput dose response assay to identify activators of the DAF-12 from the parasite S. stercoralis (ssDAF-12).; format: functional
[12] = molecular target: T8, Protein Tat (Human immunodeficiency virus type 1 group M subtype B (isolate HXB2)(HIV-1), UniProt P04608); format: functional;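 further: tat binding to TAR RNA read out by fluorescence polarization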
T8 sequence (P04608 whole entry): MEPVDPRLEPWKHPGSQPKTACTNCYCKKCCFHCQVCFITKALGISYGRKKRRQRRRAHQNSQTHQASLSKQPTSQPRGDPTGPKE

[13] = molecular target: T9, Rac GTPase-activating protein 1 (Homo sapiens, UniProt Q9H0H5); assay: MgcRacGAP GTPase-activating activity inhibitors, confirmation, biochemical, ADP Hunter fluorescence, primary and confirmatory (AID 624330); format: functional
T9 sequence (Q9H0H5 whole entry): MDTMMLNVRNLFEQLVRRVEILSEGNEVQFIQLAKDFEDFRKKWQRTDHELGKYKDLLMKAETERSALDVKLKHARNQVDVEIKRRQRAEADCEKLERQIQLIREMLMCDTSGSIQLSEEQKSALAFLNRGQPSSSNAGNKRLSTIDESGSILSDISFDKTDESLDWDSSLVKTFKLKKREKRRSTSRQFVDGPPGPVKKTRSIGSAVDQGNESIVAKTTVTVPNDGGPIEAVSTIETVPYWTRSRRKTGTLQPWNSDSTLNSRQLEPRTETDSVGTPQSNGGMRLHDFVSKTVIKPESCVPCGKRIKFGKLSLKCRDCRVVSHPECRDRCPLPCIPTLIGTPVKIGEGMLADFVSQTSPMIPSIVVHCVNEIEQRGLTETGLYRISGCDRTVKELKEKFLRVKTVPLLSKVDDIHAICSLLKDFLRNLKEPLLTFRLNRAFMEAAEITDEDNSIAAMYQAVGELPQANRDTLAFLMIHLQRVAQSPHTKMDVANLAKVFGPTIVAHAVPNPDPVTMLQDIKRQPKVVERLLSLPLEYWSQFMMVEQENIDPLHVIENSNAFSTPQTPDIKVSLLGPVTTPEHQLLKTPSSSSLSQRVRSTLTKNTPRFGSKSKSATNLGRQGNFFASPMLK

[14] = HEK293 cell cytotoxicity, dose response, cytotoxicity control, plate reader, cherry-picked samples (AID 743446); format: functional, cell-based
[15] = MC4R antagonists, dose response, counter-screen for LGR2 antagonist project, cell-based, plate reader, cherry pick (AID 743444); format: functional;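 further: transfected HEK 293 cells stimulated with alpha-MSH peptide; potency of inhibitors of the alpha-MSH evoked signal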
[16] = LGR2 antagonists, dose response, cell-based, HEK293, CRE-luciferase reporter, cherry pick, set 2 (AID 743343); format: functional;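 further: transfected cells were stimulated with diluted bursicon conditioned medium after compound addition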
[17] = HepG2 cell cytotoxicity, dose response, cytotoxicity control, cherry-picked samples (AID 1159577); format: functional, cell-based
[18] = P. falciparum Dd2 growth inhibitors, dose response, SYBR Green, cherry-picked samples (AID 1159567); format: functional, cell-based

Q: Which results are given for `CCOC(=O)c1c(C)[nH]c(N=Nc2cccc(OC)c2)c1C`?
A: IC50 [1]: 3.75 µM (active); IC50 [2]: 29.1 µM (active); IC50 [3]: 11.7 µM (active); EC50 [4]: > 67.5 µM (inactive); IC50 [5]: 17.3 µM (active)

Q: For `Cc1ccc(C)c(N2CCN(C(=O)c3cccn4c(=O)c5sccc5nc34)CC2)c1`, which AC50 [6] is on record?
A: 26.9 µM (active)

Q: Which IC50 [7] does the source give for `CCN(CC)c1ccc(N/C=C2\C(=O)NC(=O)N(CCc3ccc(OC)c(OC)c3)C2=O)cc1` here?
A: > 50 µM (not active)

Q: What does the source list for `COc1ccc(Cl)cc1C(=O)Nc1ccc2c(c1)OCCO2`?
A: EC50 [8]: > 67.5 µM (inactive); IC50 [9]: > 67.5 µM (inactive); IC50 [10]: > 67.5 µM (inactive); IC50 [11]: > 67.5 µM (inactive)

Q: Which IC50 [12] does the source give for `O=C(c1ccco1)N1CCN(C(c2ccccn2)c2nnnn2C2CCCC2)CC1` (stereo unspecified) here?
A: > 100 µM (active)

Q: With `Cc1cc(C(=O)NNC(=O)/C=C/c2ccco2)c(C)o1` as the compound, how does the IC50 [12] read?
A: > 100 µM (active)

Q: And the IC50 [13]?
A: 125 µM (active)

Q: With `O=C(COC(=O)c1nnc(O)c2ccccc12)Nc1ccccc1` as the compound, how does the AC50 [6] read?
A: > 30 µM (inactive)

Q: Which AC50 [6] does the source give for `Cc1cccc2sc(NC(=O)C3CC3)nc12` here?
A: > 30 µM (inactive)

Q: For `Clc1cccc(N2Cc3cc(-c4ccccc4)ccc3-n3nncc3C2)c1`, which AC50 [14] is on record?
A: 20.7 µM (active)

Q: What about the AC50 [15] of the same compound?
A: 34.1 µM (active)

Q: What about the AC50 [16] of the same compound?
A: 29.4 µM (active)

Q: Which results are given for `COc1cccc(S(=O)(=O)N2CCCCN3[C@@H](CO)[C@@H](c4ccc(C5=CCCCC5)cc4)[C@@H]3C2)c1`?
A: AC50 [17]: 10.8 µM (active); AC50 [18]: 1.62 µM (active)
